Consider one molecule from patent US7718677B2, “Methods and compositions for reduction of side effects of therapeutic treatments” (priority 2007, dated 2010).

Test [1] deals with corticostriatal slices from nonhuman primates. The settings on record: nicotine treatment.
Description: Brain slices at the level of the globus pallidus have generally been used as they incorporate many of the structures present in basal ganglia motor circuits. This includes glutamatergic inputs from the cortex that densely innervate striatal medium spiny GABAergic neurons and are a determinant of neuronal activity in striatal projection neurons. Synaptic plasticity, defined as long-lasting changes in the efficacy of synaptic transmission, has been identified in corticostriatal slices in vitro in the form of long-term potentiation (LTP), long-term depression (LTD) and depotentiation. In slices from unlesioned rats, high-frequency stimulation (HFS) of glutamatergic corticostriatal afferent fibers can induce both LTD and LTP in striatal medium spiny neurons, most likely due to a release of striatal glutamate which triggers dopamine release. Stimulation of both D1 and D2 receptors is required for the induction of LTD, whereas these two receptor subtypes play opposing roles in LTP.
Test [2] has as its system 6-hydroxydopamine-lesioned rats. On the procedure: Animal model—6-Hydroxydopamine lesioning. We used the 6-hydroxydopamine lesioned rat model of nigrostriatal damage described by Cenci and colleagues (Cenci et al., 1998 Eur J Neurosci 10:2694-2706; Cenci et al., 2002 Nat Rev Neurosci 3:574-579). Adult male Sprague-Dawley rats were anesthetized with isofluorane, and then placed in a Kopf stereotaxic instrument. Burr holes were drilled through the skull and an intracranial injection of 6 μg 6-hydroxydopamine (2 μg/μl) stereotaxically injected at two separate sites into the right ascending dopamine fiber bundle, for a total of 12 μg 6-hydroxydopamine. The coordinates for the position of these two lesion sites were as follows relative to the Bregma and dural surface: (1) anteroposterior, −4.4; lateral, 1.2; ventral, 7.8; tooth bar at −2.4; (2) anteroposterior, −4.0; lateral, 0.75; ventral, 8.0; tooth bar at +3.4 (Cenci et al., 1998 Eur J Neurosci 10:2694-2706; Cenci et al., 2002 Nat Rev Neurosci 3:574-579). All procedures conformed to the NIH Guide for the Care and Use of Laboratory Animals and were approved by the Institutional Animal Care and Use Committee.
Nicotine treatment regimen. The rats were first given a drinking solution containing 1% saccharin for 3-4 days (FIG. 8). Nicotine was then added at a concentration of 25 μg/ml, and increased to 50 μg/ml 3-4 days later. Animals were maintained on this dose for 3 weeks. L-dopa treatment was then initiated, as below, with the nicotine dosing continued.
L-dopa treatment and behavioral testing for AIMs. Rats received single daily intraperitoneal injections of 8 mg/kg L-dopa methyl ester plus 15 mg/kg benserazide for 3 weeks (FIG. 8), as described (Cenci et al., 1998 Eur J Neurosci 10:2694-2706; Cenci et al., 2002 Nat Rev Neurosci 3:574-579). Abnormal involuntary movements (AIMs) after daily LDOPA injection were then quantified using the scale developed by Cenci and colleagues (Cenci et al., 1998 Eur J Neurosci 10:2694-2706; Cenci et al., 2002 Nat Rev Neurosci 3:574-579), as previously done in our laboratory (Cox et al., 2007, Exp. Neurol.). Rats were placed in a Rotomax test chamber. They were then scored on a scale from 0 to 4: 1=occasional; 2=frequent; 3=continuous but interrupted by sensory distraction; 4=continuous, severe, not interrupted by sensory distraction. The rating categories were as follows; (1) axial dystonia, consisting of twisting posturing of the head and neck; (2) orolingual dyskinesia, with stereotyped jaw movements and contralateral tongue protrusion and (3) forelimb movements, with dystonic movements of the contralateral forelimb. They were also assessed for locomotive dyskinesia, or increased locomotion with contralateral side bias; however, these scores were not included because the interpretation of this motor response is not clear (Papa et al., 1994 Brain Res 662; 69-74; Cenci et al., 1998 Eur J Neurosci 10:2694-2706).
Locomotive dyskinesias are distinct from turning behavior described above. […] The maximum possible score in each session was thus 108 (maximum score per observation=12; number of observations per session=9). Rats were evaluated by two raters, one blinded to treatment.
Data analyses. Statistical significance was determined using Student's t-tests or ANOVA followed by Bonferroni post hoc tests, as appropriate. Data are mean±SEM. A p level of 0.05 was considered significant.

On to `CN1CCCC1c1cccnc1` (stereo not shown) [Nicotine, S-3-(1-methyl-2-pyrrolidinyl)pyridine], for which, in test [1], the “long-term depression (LTD) lost as a result of nigrostriatal damage” value is listed as “restores”. Further, the “total AIMs” value in test [2] (25 μg/ml nicotine in the drinking water, two and four weeks after dose lowering, pooled) is given as “reduction in AIMs was sustained”. The “total AIM scores” value in test [2] (50 μg/ml nicotine in drinking water, after 3 weeks of L-dopa 8 mg/kg ip, entire 3-hour period) was “reduction”. Also, the oral dyskinesias entry in test [2] (3 and 6-8 week time points) was “trend for a decrease”. In addition, the forelimb dyskinesias entry in test [2] (3 and 6-8 week time points, both doses of nicotine (50 and 25 μg/ml)) is “significant decreases”. For the same molecule, the axial dyskinesias entry in test [2] (6-8 week time point) is “significant decreases”. In addition, in test [2] (25 and 50 μg/ml in the drinking water), the “persistence of the decline in AIMs with L-dopa treatment” value is reported as “at least 2 months”.
